Values after ≈ are worked out from the molar mass of the structure shown. Like-named read-outs stand apart in the source and are kept apart here.
What was measured:
[1] = Zn2+ chelation, spectrophotometric and 1H NMR; format: physicochemical; conditions: 1H NMR in DMSO-d6, ratios 1:1, 1:2, 2:1, up to 72 h
Method: To test direct binding of Zn^2+ by NTZ in solution, we tested a range of concentrations of both NTZ and TIZ and scanned the solutions spectrophotometrically using an OLIS Cary-14 (OLIS Instruments Co., Bogart Ga.). Absolute spectra were recorded over a UV/Vis range from 220 nm to 700 nm. Spectral shifts in the 418 nm range would be attributable to changes in resonance within the thiazole ring that would result if Zn^2+ were coordinated by NTZ (9).
Chelation experiments were also performed utilizing NTZ and TIZ in DMSO-d6 (0.5 mL) with ZnCl2 using a 300 MHz Varian MercuryPlus spectrometer. Specifically, three ratios of NTZ to Zn^2+ were investigated (1:1, 1:2, 2:1) where NTZ was held constant (4 mg, 13 μmoles) while varying ZnCl2 (1.8 mg, 13 μmoles or 3.5 mg, 26 μmoles) or NTZ (8 mg, 26 μmoles) with ZnCl2 (1.8 mg, 13 μmoles). Three ratios of TIZ to Zn^2+ were also investigated (1:1, 1:2, 2:1) where TIZ was held constant (4 mg, 15 μmoles) while varying ZnCl2 (2.1 mg, 15 μmoles or 4.1 mg, 30 μmoles) or TIZ (8 mg, 30 μmoles) with ZnCl2 (2.1 mg, 15 μmoles). ^1H NMR spectra were then obtained after mixing for 5 min, 24 h, 48 h, and 72 h at room temperature. Any chelation event would be evidenced by shifting or broadening of the thiazole and benzene protons as well as loss of the amide proton.

[2] = tested on: aggR and aafA transcripts of EAEC 042; test: qRT-PCR of aggR, aafA and rpoS; format: cell-based, Escherichia coli; conditions: EAEC 042, MinA-G
Method: EAEC 042 was grown overnight in MinA-G medium and then diluted to a starting OD600 of 0.05 in three 50 ml MinA-G cultures with 0, 10, and 25 μg/ml NTZ. Bacterial cells were grown with shaking until the cultures reached an OD600 of ˜0.4 and were harvested by centrifugation at 4° C. The pellets were resuspended in 200 μl TE buffer, transferred to polystyrene round bottom 14 ml tubes, and total RNA was extracted by the TES-hot phenol method as previously described (15). The RNA was re-precipitated and washed two times with 500 μl 70% DEPC ethanol to remove any remaining salts. The pellets were dried at 37° C. and suspended in 100 μl DEPC water. RNA concentration was determined with a Nanoprop ND-1000 UV-Vis Spectrophotometer. RNA yields were typically in the 1.6-3.2 μg/μl range. Residual DNA was removed by treatment with TURBO DNase and stored at −80° C. (15).
Primers for real-time qRT-PCR were designed to yield approximately 150 base pair amplicons for the virulence genes aggR and aafA and for the stringent response gene rpoS, which served as an internal control. SuperScript™ II Reverse Transcriptase (Invitrogen) was used to synthesize first-strand cDNA from 1 μg purified RNA with 100 ng random primers (Invitrogen). RNA, random primers, and dNTPs (0.5 mM final concentration) were mixed, heated for 65° C. for 5 min, centrifuged briefly, and quick chilled on ice. […]

C. difficile = test: MIC by agar dilution, C. difficile; format: cell-based, Clostridium difficile
Method: A standard broth dilution protocol was used in 96 well microplates containing a standard dilution of the microorganism to be tested in 100 microliters of the appropriate medium. Appropriate medium: E. coli, LB medium; Staphylococcus strains, Trypticase Soy; and for H. pylori and C. jejuni, Brain Heart Infusion. The compounds to be tested were set at 32 μg/ml in 200 microliters in well one and then serially diluted to provide a range from 32 to 0.06. The wells were scored visually at 24 h. The well where there was no growth was recorded as the MIC. […]
Representative compounds of the invention were tested in a series of assays against a series of organisms as described above. […] The organisms tested include, C. difficile, H. pylori, C. jejuni, MRSA, S. epidermidis, and E. coli. S. epidermidis and E. coli were tested in the plank and biofilm assay. A disk diffusion assay was also used for C. difficile. Direct PFOR enzyme assays were also performed. All analogues and derivatives were not tested on every organism in every type of assay (the “-” in each table means that it was not tested).

[3] = tested on: EAEC strains 042 and 17-2; conditions: previous studies (38), cited from earlier work
E. coli 042 aggR-lacZ = test: Reporter gene fusions aggR-lacZ, aafA-phoA; format: cell-based, Escherichia coli; conditions: β-galactosidase, static growth, 12 μg/ml NTZ
Method: Reporter gene fusions were provided by James Nataro (University of Maryland) and included E. coli 042 aggR-lacZ and E. coli 042 aafA-phoA (3.4.14 and 2.94) (3) and an undefined promoterless lacZ control strain of E. coli 042. Strains were grown without shaking in MinA-G medium supplemented with 0, 12 or 25 μg/ml of NTZ for 16 h at 37° C. β-Galactosidase activity was determined spectrophotometrically and reported in Miller units (24). Alkaline phosphatase activity was also determined spectrophotometrically using p-nitrophenol as previously described (23). All assays were performed in triplicate in three independent experiments and the mean and standard deviation are reported.

Which “Chelation with ZnCl2” value [1] does the source give for `CC(=O)Oc1ccccc1C(=O)Nc1ncc([N+](=O)[O-])s1` [Nitazoxanide, 2-(acetyloxy)-N-(5-nitro-2-thiazolyl)benzamide, reference compound] here?
The value was “No chelation”.

What about the “Increase in aggR transcript levels over untreated controls” value [2] of the same molecule?
The value was roughly 10 fold.

What about the aafA expression [2] of the same molecule?
Its aafA expression is “unaffected”.

What about the MIC (C. difficile; 2-amino-3,5-dinitrothiophene analogues table, read-out: MIC C. difficile) of the same molecule?
Its MIC is 52.1 µM (≈ 16 µg/mL).

And the MIC (C. difficile; Clostridioides difficile, Furan analogues table, read-out: MIC C. difficile)?
Its MIC is 52.1 µM (≈ 16 µg/mL).

And the MIC (C. difficile; Clostridioides difficile, agar dilution, anaerobic, Wilkins Chalgrin agar, read-out: MIC (μM) C. difficile)?
The MIC was 52.1 µM (≈ 16 µg/mL).

And the MIC (C. difficile; Thiophene analogues table, read-out: MIC C. difficile)?
Its MIC is 52.1 µM (≈ 16 µg/mL).

And the “Concentrations inhibitory for growth on MinA base medium” value ([3]; E. coli papillation assay)?
The value was “higher than 15 μg/ml”.

And the “MIC in LB medium, previous studies” value [3]?
Its value is greater than 64 µg/mL.

And the “Increase in aggR:lacZ expression over untreated controls” value (E. coli 042 aggR-lacZ)?
Its value is roughly 2.5 fold.

Source: patent US8835644B2, “Broad spectrum benzothiophene-nitrothiazolide and other antimicrobials” (University of Virginia Patent Foundation, priority 2009, dated 2014)
